Measured values taken from PubChem BioAssay AID1963965 (Molecular Pharmacology Branch, DTP, NCI, 2024).

Tested on: 996289-038-R-J1-PDC spheroid viability
Test: Anticancer human tumor 996289-038-R-J1-PDC patient-derived colon adenocarcinoma cell line growth inhibition [PI3K]
Settings: spheroids with HUVEC and MSC; for IC50: curve of first compound; for viability, T/C: stronger effect = lower value
Summary of the method: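 Tumor cells were combined with HUVEC and MSCs into spheroids, then dosed with PI3K-inhibitor combinations over half-log ranges capped near clinical Cmax or 10 microM.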

[1] = second compound 0.0316 µM, first compound 0.0316 µM
[2] = second compound 0.0316 µM, first compound 0.1 µM
[3] = second compound 0.1 µM, first compound 0.0316 µM
[4] = second compound 0.1 µM, first compound 0.1 µM
[5] = second compound 0.316 µM, first compound 0.0316 µM
[6] = second compound 0.316 µM, first compound 0.1 µM
[7] = second compound 1 µM, first compound 0.0316 µM
[8] = second compound 1 µM, first compound 0.1 µM
[9] = second compound 3.16 µM, first compound 0.0316 µM
[10] = second compound 3.16 µM, first compound 0.1 µM
[11] = second compound 10 µM, first compound 0.0316 µM
[12] = second compound 10 µM, first compound 0.1 µM
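Note: spheroids exposed to compounds for seven days before viability read.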
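Throughout, for viability, T/C: luminescence used as a proxy for viable cell amount; percent viability relative to DMSO vehicle control as 100%.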

For CC(=O)c1c(C)c2cnc(Nc3ccc(N4CCNCC4)cn3)nc2n(C2CCCC2)c1=O + Cc1nc(NC(=O)N2CCCC2C(N)=O)sc1-c1ccnc(C(C)(C)C(F)(F)F)c1, the IC50 (second compound 0.0316 µM) was greater than 0.1 µM, the IC50 (second compound 0.1 µM) was greater than 0.1 µM and the IC50 (second compound 0.316 µM) was greater than 0.1 µM. The IC50 (second compound 1 µM) was greater than 0.1 µM, the IC50 (second compound 3.16 µM) was greater than 0.1 µM and the IC50 (second compound 10 µM) was less than 0.000316 µM. It also gave a viability, T/C (second compound 0.0316 µM, first compound 0.000316 µM) of 99.8%, a viability, T/C (second compound 0.0316 µM, first compound 0.001 µM) of 83.4% and a viability, T/C (second compound 0.0316 µM, first compound 0.00316 µM) of 89.9%. It also gave a viability, T/C (second compound 0.0316 µM, first compound 0.01 µM) of 86.4%, a viability, T/C [1] of 110% and a viability, T/C [2] of 99.8%. The viability, T/C (second compound 0.1 µM, first compound 0.000316 µM) was 111%, the viability, T/C (second compound 0.1 µM, first compound 0.001 µM) was 88.9% and the viability, T/C (second compound 0.1 µM, first compound 0.00316 µM) was 107%. For the same molecule, the viability, T/C (second compound 0.1 µM, first compound 0.01 µM) was 91.7%, the viability, T/C [3] was 94.7% and the viability, T/C [4] was 81.6%. It also gave a viability, T/C (second compound 0.316 µM, first compound 0.000316 µM) of 81.5%, a viability, T/C (second compound 0.316 µM, first compound 0.001 µM) of 78.1% and a viability, T/C (second compound 0.316 µM, first compound 0.00316 µM) of 80%. For the same molecule, the viability, T/C (second compound 0.316 µM, first compound 0.01 µM) was 80.2%, the viability, T/C [5] was 86.4% and the viability, T/C [6] was 77.7%. For the same molecule, the viability, T/C (second compound 1 µM, first compound 0.000316 µM) was 77.7%, the viability, T/C (second compound 1 µM, first compound 0.001 µM) was 74.5% and the viability, T/C (second compound 1 µM, first compound 0.00316 µM) was 69.2%. The viability, T/C (second compound 1 µM, first compound 0.01 µM) was 69.7%, the viability, T/C [7] was 85.2% and the viability, T/C [8] was 66.7%. The viability, T/C (second compound 3.16 µM, first compound 0.000316 µM) was 60.1%, the viability, T/C (second compound 3.16 µM, first compound 0.001 µM) was 57.9% and the viability, T/C (second compound 3.16 µM, first compound 0.00316 µM) was 62.7%. The viability, T/C (second compound 3.16 µM, first compound 0.01 µM) was 61.7%, the viability, T/C [9] was 57.9% and the viability, T/C [10] was 48%. The viability, T/C (second compound 10 µM, first compound 0.000316 µM) was 45.4%, the viability, T/C (second compound 10 µM, first compound 0.001 µM) was 40.6% and the viability, T/C (second compound 10 µM, first compound 0.00316 µM) was 36.6%. It also gave a viability, T/C (second compound 10 µM, first compound 0.01 µM) of 39.9%, a viability, T/C [11] of 47.4% and a viability, T/C [12] of 36.8%.
Molecule CCCS(=O)(=O)Nc1ccc(F)c(C(=O)c2c[nH]c3ncc(-c4ccc(Cl)cc4)cc23)c1F + Cc1nc(NC(=O)N2CCCC2C(N)=O)sc1-c1ccnc(C(C)(C)C(F)(F)F)c1 has an IC50 (second compound 0.0316 µM) of 5.9 µM, an IC50 (second compound 0.1 µM) of 5.51 µM and an IC50 (second compound 0.316 µM) of 5.54 µM. The IC50 (second compound 1 µM) was 3.45 µM, the IC50 (second compound 3.16 µM) was 1.52 µM and the IC50 (second compound 10 µM) was 0.0316 µM. The viability, T/C [1] was 90.2%, the viability, T/C [2] was 86.1% and the viability, T/C (second compound 0.0316 µM, first compound 0.316 µM) was 108%. It also gave a viability, T/C (second compound 0.0316 µM, first compound 1 µM) of 96.1%, a viability, T/C (second compound 0.0316 µM, first compound 3.16 µM) of 82.6% and a viability, T/C (second compound 0.0316 µM, first compound 10 µM) of 22%. For the same molecule, the viability, T/C [3] was 95.9%, the viability, T/C [4] was 87.7% and the viability, T/C (second compound 0.1 µM, first compound 0.316 µM) was 91.6%. For the same molecule, the viability, T/C (second compound 0.1 µM, first compound 1 µM) was 88.3%, the viability, T/C (second compound 0.1 µM, first compound 3.16 µM) was 79.5% and the viability, T/C (second compound 0.1 µM, first compound 10 µM) was 18.5%. It also gave a viability, T/C [5] of 84.2%, a viability, T/C [6] of 84.8% and a viability, T/C (second compound 0.316 µM, first compound 0.316 µM) of 80.2%. For the same molecule, the viability, T/C (second compound 0.316 µM, first compound 1 µM) was 81.3%, the viability, T/C (second compound 0.316 µM, first compound 3.16 µM) was 70.5% and the viability, T/C (second compound 0.316 µM, first compound 10 µM) was 28.3%. The viability, T/C [7] was 70.4%, the viability, T/C [8] was 79.6% and the viability, T/C (second compound 1 µM, first compound 0.316 µM) was 70.5%. For the same molecule, the viability, T/C (second compound 1 µM, first compound 1 µM) was 66.7%, the viability, T/C (second compound 1 µM, first compound 3.16 µM) was 53.1% and the viability, T/C (second compound 1 µM, first compound 10 µM) was 17%. The viability, T/C [9] was 61.1%, the viability, T/C [10] was 63.5% and the viability, T/C (second compound 3.16 µM, first compound 0.316 µM) was 57.3%. It also gave a viability, T/C (second compound 3.16 µM, first compound 1 µM) of 54.1%, a viability, T/C (second compound 3.16 µM, first compound 3.16 µM) of 43.2% and a viability, T/C (second compound 3.16 µM, first compound 10 µM) of 15.4%. For the same molecule, the viability, T/C [11] was 44%, the viability, T/C [12] was 44.8% and the viability, T/C (second compound 10 µM, first compound 0.316 µM) was 43.3%. The viability, T/C (second compound 10 µM, first compound 1 µM) was 53.2%, the viability, T/C (second compound 10 µM, first compound 3.16 µM) was 31.9% and the viability, T/C (second compound 10 µM, first compound 10 µM) was 11.5%.
